Consider 21 molecules from patent US10392404B2, “Compounds and compositions as kinase inhibitors” (NOVARTIS AG, priority 2014, dated 2019).

One experiment addresses T1, C-RAF (Homo sapiens, UniProt P04049, Y340E/Y341E).
T1 construct: His tag (implied by nickel chromatography) (cleaved yes); StrepII tag (cleaved yes); made in house; host or cells: Sf9 insect cells (baculovirus), CRAF and h14-3-3 zeta co-expressed; MEK1 substrate from E. coli
Put plainly: In vitro Raf activity determination (Alpha Screen, biotinylated kinase-dead MEK1 substrate), C-Raf. Conditions: c-Raf approximately 4 nM; ATP 1 μM; pre-incubation 60 minutes; reaction 1 hour at room temperature. It counts as biochemical. The source says:
CRAF cDNA was subcloned as full length protein, with Y340E and Y341E activating mutations, into a baculovirus expression vector for Sf9 insect cell expression. h14-3-3 zeta cDNA was subcloned into a baculovirus expression vector for SF9 insect cell expression. Sf9 cells co-expressing both proteins were lysed and subjected to immobilized nickel chromatography and eluted with Imidazole. A second column (StrepII binding column) was used and eluted with desthiobiotin. Protein Tags were removed using Prescission enzyme and the protein was further purified using a flowthrough step to remove tags.
C-Raf TR refers to a truncated C-Raf protein, a Δ1-324 deletion mutant. C-Raf FL refers to the full-length C-Raf protein.
(§1) Full length MEK1 with an inactivating K97R ATP binding site mutation is utilized as a RAF substrate. The MEK1 cDNA was subcloned with an N-terminal (his)6 tag into a vector for E. Coli expression. The MEK1 substrate was purified from E. Coli lysate by nickel affinity chromatography followed by anion exchange. The final MEK1 preparation was biotinylated (Pierce EZ-Link Sulfo-NHS-LC-Biotin) and concentrated.
(§2) Assay Materials: Assay buffer is 50 mM Tris, pH 7.5, 15 mM MgCl2, 0.01% Bovine Serum Albumin (BSA) and 1 mM dithiothreitol (DTT); Stop buffer is 60 mM ethylenediaminetetraacetic acid (EDTA) and 0.01% Tween® 20; b-Raf (V600E), active; biotinylated Mek, kinase dead; Alpha Screen detection kit (available from PerkinElmer™, #6760617R); Anti phospho-MEK1/2 (available from Cell Signaling Technology, Inc. #9121); 384 well low volume assay plates (White Greiner® plates).
(§3) Assay conditions: b-Raf (V600E) approximately 4 pM; c-Raf approximately 4 nM; biotinylated Mek, kinase dead approximately 10 nM; ATP 10 μM for BRAF (V600E) and 1 μM for CRAF; Pre-incubation time with compounds 60 minutes at room temperature; Reaction time 1 or 3 hours at room temperature.
(§4) Assay protocol: Raf and biotinylated Mek (kinase dead) were combined at 2× final concentrations in assay buffer (50 mM Tris, pH 7.5, 15 mM MgCl2, 0.01% BSA and 1 mM DTT) and dispensed […] per well in assay plates (Greiner white 384 well assay plates #781207) containing […] of 40× of a Raf kinase inhibitor test compound diluted in 100% DMSO. The plate was incubated for 60 minutes at room temperature. The Raf kinase activity reaction was started by the addition of […] per well of 2×ATP diluted in assay buffer. After 3 hours (b-Raf(V600E)) or 1 hour (c-Raf). The reactions were stopped and the phosphorylated product was measured using a rabbit anti-p-MEK (Cell Signaling, #9121) antibody and the Alpha Screen IgG (ProteinA) detection Kit (PerkinElmer #6760617R), by the addition of […] to the well of a mixture of the antibody (1:2000 dilution) and detection beads (1:2000 dilution of both beads) in Stop/bead buffer (25 mM EDTA, 50 mM Tris, pH 7.5, 0.01% Tween20). The additions were carried out under dark conditions to protect the detection beads from light. A lid was placed on top of the plate and incubated for 1 hour at room temperature, after which the luminescence was read on a PerkinElmer Envision instrument. The concentration of each compound for 50% inhibition (IC50) was calculated by non-linear regression using XL Fit data analysis software.

A further experiment concerns the target T2, b-Raf (V600E) (Homo sapiens, UniProt P15056, V600E).
T2 construct: made in house
Nature of the experiment: In vitro Raf activity determination (Alpha Screen, biotinylated kinase-dead MEK1 substrate), B-Raf. It counts as biochemical. To be noted: b-Raf (V600E) approximately 4 pM; ATP 10 μM; pre-incubation 60 minutes; reaction 3 hours at room temperature. The method, then:
as §1, §2, §3, §4

T2 sequence (P15056 whole entry V600E): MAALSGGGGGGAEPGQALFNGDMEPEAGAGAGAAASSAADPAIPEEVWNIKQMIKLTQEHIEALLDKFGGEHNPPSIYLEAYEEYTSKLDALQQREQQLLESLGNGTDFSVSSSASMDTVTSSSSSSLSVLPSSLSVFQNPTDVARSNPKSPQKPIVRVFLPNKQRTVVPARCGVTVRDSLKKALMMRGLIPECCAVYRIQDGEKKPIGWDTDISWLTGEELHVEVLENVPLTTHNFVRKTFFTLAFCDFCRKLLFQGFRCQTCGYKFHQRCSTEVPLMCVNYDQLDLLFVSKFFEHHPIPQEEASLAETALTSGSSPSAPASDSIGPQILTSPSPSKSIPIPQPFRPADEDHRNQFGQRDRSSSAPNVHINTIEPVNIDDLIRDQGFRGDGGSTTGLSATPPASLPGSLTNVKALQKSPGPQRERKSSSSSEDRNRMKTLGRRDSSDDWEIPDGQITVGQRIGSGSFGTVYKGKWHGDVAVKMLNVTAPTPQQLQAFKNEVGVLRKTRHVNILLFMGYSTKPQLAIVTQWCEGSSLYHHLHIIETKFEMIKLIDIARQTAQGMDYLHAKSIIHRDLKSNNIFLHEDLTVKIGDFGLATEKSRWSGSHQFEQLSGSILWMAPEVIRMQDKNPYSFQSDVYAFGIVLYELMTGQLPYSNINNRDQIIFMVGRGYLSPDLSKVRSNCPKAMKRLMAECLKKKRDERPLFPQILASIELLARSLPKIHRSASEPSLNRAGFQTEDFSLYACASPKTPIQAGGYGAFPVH
T1 sequence (P04049 whole entry Y340E/Y341E): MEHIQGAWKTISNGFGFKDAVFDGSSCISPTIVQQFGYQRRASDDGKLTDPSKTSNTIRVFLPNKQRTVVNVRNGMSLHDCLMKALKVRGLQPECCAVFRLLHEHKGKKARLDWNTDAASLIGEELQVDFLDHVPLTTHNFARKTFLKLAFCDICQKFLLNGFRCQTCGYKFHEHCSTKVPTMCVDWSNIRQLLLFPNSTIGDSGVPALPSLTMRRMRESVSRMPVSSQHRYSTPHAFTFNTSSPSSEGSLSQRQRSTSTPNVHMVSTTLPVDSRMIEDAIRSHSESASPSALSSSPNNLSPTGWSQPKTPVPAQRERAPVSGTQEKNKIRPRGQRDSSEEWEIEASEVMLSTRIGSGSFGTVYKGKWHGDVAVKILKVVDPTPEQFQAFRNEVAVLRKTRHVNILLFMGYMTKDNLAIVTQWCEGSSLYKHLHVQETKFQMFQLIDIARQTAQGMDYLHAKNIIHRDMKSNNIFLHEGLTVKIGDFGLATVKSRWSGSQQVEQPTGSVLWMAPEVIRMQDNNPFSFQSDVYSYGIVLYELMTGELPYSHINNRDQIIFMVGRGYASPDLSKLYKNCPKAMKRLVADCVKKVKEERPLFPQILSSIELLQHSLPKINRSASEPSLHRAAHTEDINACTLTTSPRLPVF
T1 sequence (P63104 whole entry partner): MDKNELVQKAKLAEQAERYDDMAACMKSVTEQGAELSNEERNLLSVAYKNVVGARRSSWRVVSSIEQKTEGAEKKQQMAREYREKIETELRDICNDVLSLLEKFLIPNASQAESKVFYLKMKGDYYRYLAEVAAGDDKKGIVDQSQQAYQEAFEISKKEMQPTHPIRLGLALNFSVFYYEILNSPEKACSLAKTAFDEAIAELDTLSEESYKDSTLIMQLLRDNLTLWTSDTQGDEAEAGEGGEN

Regarding `Cc1ccc(NC(=O)c2ccnc(C(F)(F)F)c2)cc1-c1cnc(N2CCOCC2)c(C#N)c1` [Example 62, N-(3-(5-cyano-6-morpholinopyridin-3-yl)-4-methylphenyl)-2-(trifluoromethyl) isonicotinamide], the figures for the IC50 on C-RAF and against b-Raf (V600E) were 0.158 nM and 0.477 nM, respectively.
As for `Cc1ccc(NC(=O)c2cnnc(C(C)(C)C#N)c2)cc1-c1cnc(N2CCNCC2)c(C#N)c1` [Example 211, N-(3-(5-cyano-6-(piperazin-1-yl)pyridin-3-yl)-4-methylphenyl)-6-(2-cyanopropan-2-yl)pyridazine-4-carboxamide], the IC50 (as a rule, the concentration that gives 50% inhibition) against C-RAF was determined as 0.886 nM; against b-Raf (V600E), 3.07 nM.
Regarding `Cc1ncc(NC(=O)c2ccnc(C(C)(F)F)c2)cc1-c1cnc(N2CC(C)(O)C2)c(C#N)c1` [Example 183, N-(5′-cyano-6′-(3-hydroxy-3-methylazetidin-1-yl)-2-methyl-[3,3′-bipyridin]-5-yl)-2-(1,1-difluoroethyl) isonicotinamide], the results for the IC50 against C-RAF and at b-Raf (V600E) were 0.824 nM and 5.79 nM, respectively.
Take `Cc1ncc(NC(=O)c2ccnc(C(F)F)c2)cc1-c1cnc(C2CCOCC2)c(C#N)c1` [Example 129, N-(5′-cyano-2-methyl-6′-(tetrahydro-2H-pyran-4-yl)-[3,3′-bipyridin]-5-yl)-2-(difluoromethyl) isonicotinamide]: the figures for the IC50 at C-RAF and on b-Raf (V600E) were 2.55 nM and 23.8 nM, respectively.
Consider `Cc1ccc(NC(=O)c2cccc(C(F)F)c2)cc1-c1cnc(N2CCNCC2)c(C#N)c1` [Example 163, N-(3-(5-cyano-6-(piperazin-1-yl)pyridin-3-yl)-4-methylphenyl)-3-(difluoromethyl) benzamide], for which the values for the half-maximal inhibitory concentration (IC50) against C-RAF and at b-Raf (V600E) were 0.125 nM and 0.901 nM, respectively.
As for `Cc1ncc(NC(=O)c2ccnc(C(F)(F)F)c2)cc1-c1cnc(-n2ccccc2=O)c(C#N)c1` [Example 51, N-(3′-cyano-2″- methyl-2-oxo-2H-[1,2′:5′,3″- terpyridin]-5″-yl)-2-(trifluoromethyl) isonicotinamide], the 50% inhibitory concentration (IC50) on C-RAF was 101 nM; against b-Raf (V600E), 447 nM.
`Cc1ccc(NC(=O)c2ccnc(C(C)(C)O)c2)cc1-c1cnc(N2CC(C)(O)C2)c(C#N)c1` [Example 215, N-(3-(5-cyano-6-(3-hydroxy-3-methylazetidin-1-yl)pyridin-3-yl)-4-methylphenyl)-2-(2-hydroxypropan-2-yl)isonicotinamide]: the half-maximal inhibitory concentration (IC50) amounted to 1.28 nM against C-RAF and 8.05 nM at b-Raf (V600E).
As to `Cc1ccc(NC(=O)c2ccnc(C(F)F)c2)cc1-c1cnc(N2CCOCC2)c(C#N)c1` [Example 154, N-(3-(5-cyano-6-morpholinopyridin-3-yl)-4-methylphenyl)-2-(difluoromethyl) isonicotinamide], the results for the 50% inhibitory concentration (IC50) at C-RAF and against b-Raf (V600E) were 0.0675 nM and 0.342 nM, respectively.
`Cc1ccc(NC(=O)c2cc(C(F)(F)F)ccn2)cc1-c1cnc(N2CC(C)(O)C2)c(C#N)c1` [Example 224, N-(3-(5-cyano-6-(3-hydroxy-3-methylazetidin-1-yl)pyridin-3-yl)-4-methylphenyl)-4-(trifluoromethyl) picolinamide]: the IC50 against C-RAF turned out to be 0.49 nM; on b-Raf (V600E) it was 2 nM.
The like results for `COCCNc1ncc(-c2cc(NC(=O)c3ccnc(C(C)(C)C#N)c3)cnc2C)cc1C#N` [Example 198, N-(5′-cyano-6′-((2-methoxyethyl)amino)-2-methyl-[3,3′-bipyridin]-5-yl)-2-(2-cyanopropan-2-yl)isonicotinamide] were, in that order, 4.06 nM and 13.4 nM.
`Cc1ncc(NC(=O)c2ccnc(C(C)(C)C#N)c2)cc1-c1cnc(N2CCOC[C@@H]2C)c(C#N)c1` [Example 87, (S)-N-(5′-cyano-2-methyl-6′-(3-methylmorpholino)-[3,3′-bipyridin]-5-yl)-2-(2-cyanopropan-2-yl)isonicotinamide]: the IC50 on C-RAF stood at 1.15 nM; on b-Raf (V600E), 3.02 nM.
As for `Cc1ccc(NC(=O)c2ccnc(S(C)(=O)=O)c2)cc1-c1cnc(C2CCOCC2)c(C#N)c1` [Example 138, N-(3-(5-cyano-6-(tetrahydro-2H-pyran-4-yl)pyridin-3-yl)-4-methylphenyl)-2-(methylsulfonyl) isonicotinamide], the results for the IC50 against C-RAF and on b-Raf (V600E) were 0.511 nM and 4.14 nM, respectively.
As for `Cc1ncc(NC(=O)c2ccnc(C3CC3)c2)cc1-c1cnc(C2CCOCC2)c(C#N)c1` [Example 131, N-(5′-cyano-2-methyl-6′-(tetrahydro-2H-pyran-4-yl)-[3,3′-bipyridin]-5-yl)-2-cyclopropyl-isonicotinamide], the IC50 was 0.745 nM at C-RAF and 4.26 nM against b-Raf (V600E).
The like results for `Cc1ncc(NC(=O)c2cccc(C(F)(F)F)n2)cc1-c1cnc(C2CCOCC2)c(C#N)c1` [Example 141, N-(5′-cyano-2-methyl-6′-(tetrahydro-2H-pyran-4-yl)-[3,3′-bipyridin]-5-yl)-6-(trifluoromethyl) picolinamide] were, in that order, 5.13 nM and 56.2 nM.
For `Cc1ncc(NC(=O)c2ccnc(C(C)(C)C#N)c2)cc1-c1cnc(NC2CCOC2)c(C#N)c1` (centres unmarked) [Example 77, N-(5′-cyano-2-methyl-6′-((tetrahydrofuran-3-yl)amino)-[3,3′-bipyridin]-5-yl)-2-(2-cyanopropan-2-yl)isonicotinamide], the half-inhibitory concentration (IC50) came out at 2.53 nM at C-RAF and 9.28 nM against b-Raf (V600E).
Regarding `Cc1ncc(NC(=O)c2ccnc(C(C)(C)C#N)c2)cc1-c1cnc(OC2COC2)c(C#N)c1` [Example 94, N-(5′-cyano-2-methyl-6′-(oxetan-3-yloxy)-[3,3′-bipyridin]-5-yl)-2-(2-cyanopropan-2-yl)isonicotinamide], the half-maximal inhibitory concentration (IC50) at C-RAF is 5.98 nM; against b-Raf (V600E), 23.6 nM.
As to `COCCNc1ncc(-c2cc(NC(=O)c3ccnc(C(F)F)c3)cnc2C)cc1C#N` [Example 196, N-(5′-cyano-6′-((2-methoxyethyl)amino)-2-methyl-[3,3′-bipyridin]-5-yl)-2-(difluoromethyl) isonicotinamide], the IC50 at C-RAF came out at 2.14 nM; on b-Raf (V600E), 16.1 nM.
As to `Cc1ccc(NC(=O)c2ccnc(C(C)(C)O)c2)cc1-c1cnc(N2CCOCC2)c(C#N)c1` [Example 165, N-(3-(5-cyano-6-morpholinopyridin-3-yl)-4-methylphenyl)-2-(2-hydroxypropan-2-yl)isonicotinamide], the results for the IC50 at C-RAF and on b-Raf (V600E) were 0.356 nM and 1.24 nM, respectively.
The like results for `Cc1ccc(NC(=O)c2cc(C(C)(C)N)cc(C(F)(F)F)c2)cc1-c1cnc(N2CC(C)(O)C2)c(C#N)c1` [Example 248, 3-(2-aminopropan-2-yl)-N-(3-(5-cyano-6-(3-hydroxy-3-methylazetidin-1-yl)pyridin-3-yl)-4-methylphenyl)-5-(trifluoromethyl) benzamide] were, in that order, 2.02 nM and 10.6 nM.
Consider `Cc1ncc(NC(=O)c2ccnc(C(C)(C)F)c2)cc1-c1cnc(N2CC(C)(O)C2)c(C#N)c1` [Example 193, N-(5′-cyano-6′-(3-hydroxy-3-methylazetidin-1-yl)-2-methyl-[3,3′-bipyridin]-5-yl)-2-(2-fluoropropan-2-yl)isonicotinamide], for which the figures for the IC50 on C-RAF and at b-Raf (V600E) were 1.75 nM and 7.91 nM, respectively.
`Cc1cc(C(=O)Nc2cnc(C)c(-c3cnc(N(C)C)c(C#N)c3)c2)n(C)n1` [Example 265, N-(5′-cyano-6′-(dimethylamino)-2-methyl-[3,3′-bipyridin]-5-yl)-1,3-dimethyl-1H-pyrazole-5-carboxamide] came in with an IC50 on C-RAF of 312 nM. That is a sub-micromolar value.
